Consider two compounds from patent US20200345721A1, “Device for Deterring Abuse of Drugs” (EIGHTY EIGHT PHARMA, INC., priority 2019, published 2020).

The nature of data set [1]: Naltrexone HCl solubility, HPLC analysis. Format: physicochemical. Conditions: for solubility at 2 h / solubility at 1 h / solubility: thermodynamic from solid; for solubility at 1 h: sample 50 mg/mL. As for the experimental part:
To determine the solubility of Naltrexone HCl in solutions of 100% water or 60%/40% Ethanol/water, solutions of Naltrexone HCl were prepared at 50 mg/mL and 100 mg/mL in 100% water or 60%/40% ethanol/water for a total of 4 solutions. Solutions were vortex mixed, placed on a mechanical shaker and evaluated every 30 minutes for complete dissolution. Once fully dissolved, each solution was prepared for HPLC by diluting to 2 mg/mL in methanol and 0.1M phosphoric acid and analyzed on an HPLC.
The 50 mg/mL samples were fully dissolved into solution following 1 hour on the mechanical shaker with periodic vortex mixing. The 100 mg/mL solution prepared in the ethanol/water mixture was dissolved after a total of 2 hours shaking with periodic vertex mixing. The 100 mg/mL solution in 100% water was also sonicated. HPLC results are included in Table 3.

The test system of data set [2] is pharmacologic effects of 25 mg of intravenously administered heroin. The conditions noted are these: cited from earlier work.
For data set [3], the system named is humans. Conditions: 800 mg daily for up to one week, human subjects; cited from earlier work.
Data set [4] concerns rat. The conditions noted are these: cited from earlier work.
For data set [5], the system named is guinea pig. The conditions noted are these: cited from earlier work.
Data set [6] has as its system animals. The conditions noted are these: cited from earlier work.
Data set [7] can be described thus: Solubility of naltrexone in ethanol/water. Format: physicochemical. As for the experimental part:
A solution of naltrexone in 60% Ethanol/40% water at a concentration of 19 mg/ml was achieved without precipitation.
To determine a formulation which will deposit 3.6-9.6 mg of Naltrexone onto small IR tablets within a specified period of time, the ratio of ethanol to water was adjusted to increase solubility of Naltrexone.

The nature of data set [8]: Naltrexone recovered from IR and ER tablets, 23 mg/mL solutions (Example 4). Conditions: 23 mg/ml ethanol/water solution, lower proportion of ethanol. As for the experimental part: To compare formulations of Naltrexone and Naltrexone HCl which will deposit 3.6-9.6 mg of Naltrexone onto small IR tablets, small extended release (“ER”) tablets and large ER tablets, Naltrexone (23 mg/ml) and Naltrexone HCl (23 mg/ml) solutions were used. Six (6) small IR tablets (Homeopathy Blank 5 Grain, Lactose, Lot #: 07090710H3, Exp. 08/23), six (6) small ER Tablets (Mucus Relief Guaifenesin Extended-Release Tablets, 600 mg, Lot #: F07210, Exp. 04/20), and three (3) large ER tablets (Mucus Relief Guaifenesin Extended-Release Tablets, 1200 mg, Lot #: F08474, Exp. 05/20) were tested. Tablets were placed in test tubes or kept in their blister packaging and spiked with a 23 mg/mL spiking solution containing either Naltrexone Base or Naltrexone HCl. Small tablets (IR and ER) were divided into two groups of 3 and coated with a solution prepared with either Naltrexone base (23 mg/ml) or Naltrexone HCl (23 mg/ml). Large ER tablets were spiked with Naltrexone base solution only while remaining in their original blister packaging. Each tablet remained in solution for a period of 2, 6 or 10 minutes before removal and testing form Naltrexone. The large ER tablets spiked with Naltrexone NCl were not completed due to time limitations

Structures can show the parent of a compound that is named as a salt. Where two headings read alike, the source gives them in different places. A value given as a limit tells only on which side of the number the result lay.

For `O=C1CC[C@@]2(O)[C@H]3Cc4ccc(O)c5c4[C@@]2(CCN3CC2CC2)[C@H]1O5` [Naltrexone HCl, naltrexone hydrochloride], in data set [1] (50 mg/mL samples, periodic vortex mixing), the “time on mechanical shaker until fully dissolved” value worked out at 1 h. The “total shaking time until dissolved” value in data set [1] (100 mg/mL in ethanol/water mixture) amounted to 2 h. Moreover, the solubility at 2 h in data set [1] (60%/40% ethanol/water, aqueous with cosolvent or surfactant or cyclodextrin, 60%/40% ethanol/water, read-out: solubility (soluble up to)) was at least 100 mg/mL; in data set [1] (60:40 ethanol:water, aqueous with cosolvent or surfactant or cyclodextrin, sample 100 mg/mL, 60:40 Ethanol:water, HPLC, read-out: Solubilized Concentration), 96.1 mg/mL. Besides, the solubility at 1 h is 48.6 mg/mL in data set [1] (60:40 ethanol:water, aqueous with cosolvent or surfactant or cyclodextrin, 60:40 Ethanol:water, HPLC, read-out: Solubilized Concentration) and 49 mg/mL in data set [1] (100% water, water, 100% water, HPLC, read-out: Solubilized Concentration). The solubility in data set [1] (100% water, water, 100% water, read-out: solubility (soluble up to)) was at least 100 mg/mL; in data set [1] (100% water, water, sample 100 mg/mL, 100% water, HPLC, read-out: Solubilized Concentration), 96.9 mg/mL. In addition, in data set [2] (50 mg naltrexone hydrochloride vs 25 mg intravenous heroin), the “duration of blockade of pharmacologic effects of heroin” value is reported as at most 24 hours. Besides, the duration of blockade in data set [2] (doubling the dose of naltrexone hydrochloride) was 48 h; in data set [2] (tripling the dose of naltrexone hydrochloride), “about 72 hours”. For the same compound, the evidence of toxicity entry in data set [3] is “no evidence of toxicity”. For the same compound, the results for the “oral LD50” value in data set [4] and in data set [5] were 1,450 mg/kg and 1,490 mg/kg, respectively. Besides, in data set [6] (high doses, generally >1,000 mg/kg), the “signs produced by high doses” value is “salivation, depression/reduced activity, tremors, and convulsions”.
For `O=C1CC[C@@]2(O)[C@H]3Cc4ccc(O)c5c4[C@@]2(CCN3CC2CC2)[C@H]1O5` [Naltrexone Base, naltrexone], the “concentration achieved without precipitation” value in data set [7] (60% Ethanol/40% water) was 19000 µg/mL. Also, the “final concentration of solution, titrated with water until precipitates formed” value in data set [7] (75:25 ethanol to water) was found to be 37.5 mg/mL. The “stability of the solution” value in data set [8] is listed as “comes out of solution over time”. In data set [6] (high-dose administration, animals), the cause of mortalities result was “tonic-clonic convulsions and/or respiratory failure”.
